ChEMBL document CHEMBL1139219, “Synthesis and biological evaluation of quinoline salicylic acids as P-selectin antagonists” (J Med Chem, 2007)
pIC50: −log10 of the molar value. The source made the active and inactive calls. The calls are words filed in the database; no cut-off is given here.

Experiments:
[1] = target: P-selectin (Homo sapiens) (UniProt P16109); experiment: Inhibition of human recombinant P-selectin expressed in CHO cells by Biacore assay at 6 mM
[2] = Clearance in Sprague-Dawley rat at 1 mg/kg, iv; type: ADME, organism-based; parameters: dose 1 mg/kg, route intravenous; details: in vivo
[3] = AUC in Sprague-Dawley rat at 1 mg/kg, iv; type: ADME, organism-based; parameters: dose 1 mg/kg, route intravenous; details: plasma
HUVEC = experiment: Inhibition of neutrophil adhesion to IL4-stimulated HUVEC by leukocyte rolling assay; type: functional, cell-based; details: Homo sapiens
[4] = Cmax in Sprague-Dawley rat at 1 mg/kg, iv; type: ADME, organism-based; parameters: dose 1 mg/kg, route intravenous; details: in vivo
[5] = target: Dihydroorotate dehydrogenase (quinone), mitochondrial (Homo sapiens, UniProt Q02127)
Chain of Dihydroorotate dehydrogenase (quinone), mitochondrial (Q02127 whole entry): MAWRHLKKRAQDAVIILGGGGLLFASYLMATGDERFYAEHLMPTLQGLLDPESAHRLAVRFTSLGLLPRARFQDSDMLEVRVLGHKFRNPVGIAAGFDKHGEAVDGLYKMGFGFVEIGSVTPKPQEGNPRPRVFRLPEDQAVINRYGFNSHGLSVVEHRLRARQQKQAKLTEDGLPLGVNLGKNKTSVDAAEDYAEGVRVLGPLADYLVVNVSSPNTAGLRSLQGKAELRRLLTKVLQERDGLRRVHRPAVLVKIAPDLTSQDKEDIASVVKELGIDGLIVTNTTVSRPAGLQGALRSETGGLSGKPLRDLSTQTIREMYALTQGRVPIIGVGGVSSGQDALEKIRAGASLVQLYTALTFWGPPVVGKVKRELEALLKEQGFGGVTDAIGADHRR
Description: Inhibition of human recombinant DHOD expressed in Escherichia coli

Rattus norvegicus [6] = experiment: Inhibition of carrageenan-induced paw edema in Sprague-Dawley rat at 10 mg/kg, po; type: functional
Cytochrome P450 3A4 = Cytochrome P450 3A4 (Homo sapiens, UniProt P08684); experiment: Inhibition of human CYP3A4; type: ADME
Chain of Cytochrome P450 3A4 (P08684 whole entry): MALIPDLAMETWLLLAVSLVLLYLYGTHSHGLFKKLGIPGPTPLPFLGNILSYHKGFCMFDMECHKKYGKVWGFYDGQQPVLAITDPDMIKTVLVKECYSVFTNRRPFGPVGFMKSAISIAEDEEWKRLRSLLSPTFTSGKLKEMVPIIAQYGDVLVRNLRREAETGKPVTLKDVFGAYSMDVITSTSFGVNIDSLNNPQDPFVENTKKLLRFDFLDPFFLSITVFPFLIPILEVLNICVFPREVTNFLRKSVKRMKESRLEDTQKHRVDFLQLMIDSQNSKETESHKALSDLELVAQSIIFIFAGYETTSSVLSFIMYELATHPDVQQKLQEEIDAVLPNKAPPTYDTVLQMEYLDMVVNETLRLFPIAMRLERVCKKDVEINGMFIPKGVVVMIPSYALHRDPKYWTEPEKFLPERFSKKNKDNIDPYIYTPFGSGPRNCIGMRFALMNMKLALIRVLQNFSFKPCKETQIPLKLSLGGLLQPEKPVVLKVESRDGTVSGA

Cytochrome P450 2A6 = target: T1, Cytochrome P450 2A6 (Homo sapiens, UniProt P11509); experiment: Inhibition of human CYP2A6; type: ADME
T1 sequence (P11509 whole entry): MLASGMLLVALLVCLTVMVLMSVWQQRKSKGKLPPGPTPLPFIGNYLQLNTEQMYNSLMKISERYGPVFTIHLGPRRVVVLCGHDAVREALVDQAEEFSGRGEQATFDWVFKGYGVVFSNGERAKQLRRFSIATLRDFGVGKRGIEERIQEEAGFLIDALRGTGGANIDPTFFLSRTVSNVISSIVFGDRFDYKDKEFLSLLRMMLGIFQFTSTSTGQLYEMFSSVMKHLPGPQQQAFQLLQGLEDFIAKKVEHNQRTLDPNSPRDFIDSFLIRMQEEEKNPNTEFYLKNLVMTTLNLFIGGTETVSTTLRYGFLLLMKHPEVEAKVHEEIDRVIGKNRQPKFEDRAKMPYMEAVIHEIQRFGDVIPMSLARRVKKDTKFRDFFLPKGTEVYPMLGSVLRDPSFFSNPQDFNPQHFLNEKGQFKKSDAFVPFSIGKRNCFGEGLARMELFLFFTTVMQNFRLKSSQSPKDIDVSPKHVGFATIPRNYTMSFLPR

Cytochrome P450 2C19 = Cytochrome P450 2C19 (Homo sapiens, UniProt P33261); experiment: Inhibition of human CYP2C19; type: ADME
Chain of Cytochrome P450 2C19 (P33261 whole entry): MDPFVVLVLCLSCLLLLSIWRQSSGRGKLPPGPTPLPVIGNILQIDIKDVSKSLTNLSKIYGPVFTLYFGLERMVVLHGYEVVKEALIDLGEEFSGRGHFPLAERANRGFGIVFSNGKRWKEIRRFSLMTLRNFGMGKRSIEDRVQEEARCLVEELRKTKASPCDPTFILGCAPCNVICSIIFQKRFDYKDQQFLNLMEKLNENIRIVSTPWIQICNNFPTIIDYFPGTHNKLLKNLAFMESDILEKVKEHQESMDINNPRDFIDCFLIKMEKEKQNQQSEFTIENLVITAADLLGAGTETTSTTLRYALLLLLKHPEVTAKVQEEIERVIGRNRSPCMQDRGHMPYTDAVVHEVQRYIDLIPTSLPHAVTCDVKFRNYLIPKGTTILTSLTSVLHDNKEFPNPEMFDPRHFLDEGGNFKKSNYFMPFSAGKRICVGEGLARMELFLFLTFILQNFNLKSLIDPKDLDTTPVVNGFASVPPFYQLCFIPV

Cytochrome P450 2C9 = Cytochrome P450 2C9 (Homo sapiens, UniProt P11712); experiment: Inhibition of human CYP2C9; type: ADME
Chain of Cytochrome P450 2C9 (P11712 whole entry): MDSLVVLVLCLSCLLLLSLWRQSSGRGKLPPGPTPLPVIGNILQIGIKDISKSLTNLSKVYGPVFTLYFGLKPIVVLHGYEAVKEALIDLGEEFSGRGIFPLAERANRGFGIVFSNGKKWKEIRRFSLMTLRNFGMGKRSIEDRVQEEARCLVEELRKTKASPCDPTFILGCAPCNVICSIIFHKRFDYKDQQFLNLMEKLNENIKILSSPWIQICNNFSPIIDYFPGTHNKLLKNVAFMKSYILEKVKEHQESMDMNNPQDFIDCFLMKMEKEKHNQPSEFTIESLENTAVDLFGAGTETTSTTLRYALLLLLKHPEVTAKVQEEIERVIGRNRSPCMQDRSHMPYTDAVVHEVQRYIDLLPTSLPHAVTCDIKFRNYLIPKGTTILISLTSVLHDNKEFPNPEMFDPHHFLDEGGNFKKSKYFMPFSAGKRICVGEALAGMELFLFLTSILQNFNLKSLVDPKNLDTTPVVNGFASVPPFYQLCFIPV

Cytochrome P450 1A2 = target: T2, Cytochrome P450 1A2 (Homo sapiens, UniProt P05177); experiment: Inhibition of human CYP1A2; type: ADME
T2 sequence (P05177 whole entry): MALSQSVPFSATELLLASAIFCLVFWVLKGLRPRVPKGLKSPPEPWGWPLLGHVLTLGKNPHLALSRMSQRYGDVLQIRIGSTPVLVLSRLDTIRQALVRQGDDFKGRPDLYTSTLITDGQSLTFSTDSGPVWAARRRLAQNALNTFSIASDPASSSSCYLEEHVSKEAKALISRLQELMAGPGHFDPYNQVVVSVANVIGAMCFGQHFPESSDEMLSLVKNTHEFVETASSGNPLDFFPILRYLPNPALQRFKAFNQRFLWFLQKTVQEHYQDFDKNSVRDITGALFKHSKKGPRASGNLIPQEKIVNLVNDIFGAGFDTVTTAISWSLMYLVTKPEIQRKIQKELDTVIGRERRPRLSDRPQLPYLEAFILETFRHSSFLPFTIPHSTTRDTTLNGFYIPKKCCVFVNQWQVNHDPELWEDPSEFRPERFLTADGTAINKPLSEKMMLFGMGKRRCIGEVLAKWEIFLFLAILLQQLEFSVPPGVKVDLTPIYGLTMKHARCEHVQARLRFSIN

Rattus norvegicus [7] = experiment: Plasma concentration in Lewis rat Freund's complete adjuvant-induced arthritis model at 10 mg/kg, po; type: ADME, organism-based; parameters: dose 10 mg/kg, route oral; details: in vivo
Cytochrome P450 2C8 = target: T3, Cytochrome P450 2C8 (Homo sapiens, UniProt P10632); experiment: Inhibition of human CYP2C8; type: ADME
T3 sequence (P10632 whole entry): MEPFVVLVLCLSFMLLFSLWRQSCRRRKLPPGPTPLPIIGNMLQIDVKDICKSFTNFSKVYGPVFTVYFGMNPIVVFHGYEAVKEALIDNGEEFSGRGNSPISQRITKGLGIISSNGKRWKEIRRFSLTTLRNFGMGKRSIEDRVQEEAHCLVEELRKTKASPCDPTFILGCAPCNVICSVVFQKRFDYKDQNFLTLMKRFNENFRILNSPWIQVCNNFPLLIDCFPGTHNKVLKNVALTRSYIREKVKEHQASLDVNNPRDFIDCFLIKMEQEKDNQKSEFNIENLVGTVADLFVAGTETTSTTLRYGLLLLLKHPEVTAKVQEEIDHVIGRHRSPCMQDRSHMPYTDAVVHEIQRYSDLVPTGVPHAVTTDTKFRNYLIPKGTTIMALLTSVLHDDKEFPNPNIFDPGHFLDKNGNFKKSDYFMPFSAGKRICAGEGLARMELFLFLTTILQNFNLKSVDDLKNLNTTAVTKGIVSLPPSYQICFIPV

Rattus norvegicus [8] = organism: Rattus norvegicus; experiment: Toxicity in Lewis rat Freund's complete adjuvant-induced arthritis model; type: organism-based; details: in vivo
Cytochrome P450 2D6 = Cytochrome P450 2D6 (Homo sapiens, UniProt P10635); experiment: Inhibition of human CYP2D6; type: ADME
Chain of Cytochrome P450 2D6 (P10635 whole entry): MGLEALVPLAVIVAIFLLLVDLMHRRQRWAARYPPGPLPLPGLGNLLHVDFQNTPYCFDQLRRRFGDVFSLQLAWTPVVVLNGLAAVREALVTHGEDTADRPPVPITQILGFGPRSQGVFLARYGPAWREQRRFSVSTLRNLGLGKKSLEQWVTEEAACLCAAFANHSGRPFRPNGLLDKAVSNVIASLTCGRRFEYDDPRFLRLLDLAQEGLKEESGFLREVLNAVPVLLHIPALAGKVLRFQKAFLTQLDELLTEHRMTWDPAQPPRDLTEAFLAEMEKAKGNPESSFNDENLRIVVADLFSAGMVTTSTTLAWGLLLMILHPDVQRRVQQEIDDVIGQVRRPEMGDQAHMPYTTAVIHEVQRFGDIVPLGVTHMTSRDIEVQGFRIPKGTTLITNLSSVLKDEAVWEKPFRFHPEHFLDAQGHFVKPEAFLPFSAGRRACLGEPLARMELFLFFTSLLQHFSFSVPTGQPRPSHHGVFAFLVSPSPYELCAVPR

[9] = Oral bioavailability in rat; type: ADME, organism-based; details: in vivo
[10] = target: Dihydroorotate dehydrogenase (quinone), mitochondrial (Rattus norvegicus) (UniProt Q63707)
Chain of Dihydroorotate dehydrogenase (quinone), mitochondrial (Rattus norvegicus) (Q63707 whole entry): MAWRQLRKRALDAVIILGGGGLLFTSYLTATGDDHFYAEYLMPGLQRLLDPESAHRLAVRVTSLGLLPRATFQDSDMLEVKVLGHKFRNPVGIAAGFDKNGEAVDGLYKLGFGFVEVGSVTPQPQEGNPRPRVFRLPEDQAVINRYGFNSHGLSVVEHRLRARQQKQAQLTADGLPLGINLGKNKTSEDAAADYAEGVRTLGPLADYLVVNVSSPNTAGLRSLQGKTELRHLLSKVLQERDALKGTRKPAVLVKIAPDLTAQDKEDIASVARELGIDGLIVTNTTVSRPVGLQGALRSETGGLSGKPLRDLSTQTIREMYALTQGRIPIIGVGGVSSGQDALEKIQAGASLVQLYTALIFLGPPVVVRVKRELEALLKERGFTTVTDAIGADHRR
Description: Antagonist activity against DHOD in rat

Chain of P-selectin (Homo sapiens) (P16109 whole entry, looked up): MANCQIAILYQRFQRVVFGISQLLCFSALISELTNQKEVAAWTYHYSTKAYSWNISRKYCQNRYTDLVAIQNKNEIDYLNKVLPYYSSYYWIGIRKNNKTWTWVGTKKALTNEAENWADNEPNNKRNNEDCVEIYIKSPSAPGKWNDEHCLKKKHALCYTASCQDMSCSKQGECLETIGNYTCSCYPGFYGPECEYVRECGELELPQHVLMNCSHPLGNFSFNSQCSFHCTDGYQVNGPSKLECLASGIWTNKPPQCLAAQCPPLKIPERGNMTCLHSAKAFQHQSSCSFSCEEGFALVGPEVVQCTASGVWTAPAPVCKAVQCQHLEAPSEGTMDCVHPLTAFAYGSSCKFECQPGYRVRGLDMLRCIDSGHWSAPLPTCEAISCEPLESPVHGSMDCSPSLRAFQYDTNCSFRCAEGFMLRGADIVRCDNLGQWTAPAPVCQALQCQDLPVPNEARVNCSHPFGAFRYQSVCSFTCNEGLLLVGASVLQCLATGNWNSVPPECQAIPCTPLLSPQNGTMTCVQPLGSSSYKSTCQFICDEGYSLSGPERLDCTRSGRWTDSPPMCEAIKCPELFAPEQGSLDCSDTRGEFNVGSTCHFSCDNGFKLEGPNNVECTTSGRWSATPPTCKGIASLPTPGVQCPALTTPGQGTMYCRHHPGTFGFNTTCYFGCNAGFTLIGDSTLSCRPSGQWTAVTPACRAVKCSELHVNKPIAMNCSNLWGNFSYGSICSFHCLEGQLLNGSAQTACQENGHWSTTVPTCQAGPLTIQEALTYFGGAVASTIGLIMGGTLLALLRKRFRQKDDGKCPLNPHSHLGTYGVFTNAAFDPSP

For `COc1c(-c2ccccc2)nc2ccccc2c1C(=O)O`, which inhibition [1] is on record?
The inhibition was 22%.

With `Cc1ccc2c(C(=O)O)c(O)c(-c3ccc(C(F)(F)F)cc3)nc2c1C` as the compound, how does the clearance [2] read?
Its clearance is 4.7 mL/min/kg.

And the AUC [3]?
Its AUC is 8.58 µM·h.

What about the pIC50 (HUVEC) of the same compound?
Its pIC50 is 5.15.

What about the Cmax [4] of the same compound?
The Cmax was 9 µM.

With `Cc1ccc2c(C(=O)O)c(O)c(-c3ccc(OC(F)(F)F)cc3)nc2c1C` as the compound, how does the pIC50 (HUVEC) read?
The pIC50 was 4.82.

With `Cc1cc(OC(F)(F)F)cc2c(C(=O)O)c(O)c(-c3ccc(Cl)cc3)nc12` as the compound, how does the pIC50 (HUVEC) read?
Its pIC50 is 4.81.

With `CCc1cccc2c(C(=O)O)c(O)c(-c3ccc(Cl)cc3)nc12` as the compound, how does the pIC50 (HUVEC) read?
The pIC50 was 5.00.

With `O=C(O)c1cc(-c2ccccc2)nc2ccccc12` as the compound, how does the inhibition [1] read?
The inhibition was 22%.

With `Cc1ccc2c(C(=O)O)c(O)c(-c3cccc(Cl)c3)nc2c1C` as the compound, how does the pIC50 (HUVEC) read?
Its pIC50 is 5.30.

What does the source list for `O=C(O)c1c(O)c(-c2ccc(Cl)cc2)nc2c(Cl)cccc12`?
pIC50 (HUVEC): 4.66; pIC50 [5]: 3.85

For `COc1ccc2cc([C@H](C)C(=O)O)ccc2c1` [NAPROXEN], which inhibition in vivo at 10 mg/kg (Rattus norvegicus [6]) is on record?
Its inhibition in vivo at 10 mg/kg is 68.3%.

Which Activity [1] does the source give for `Oc1cc2ccccc2nc1-c1ccccc1` here?
Its Activity is “inactive”.

With `O=C(O)c1c(O)c(-c2ccc(Cl)cc2)nc2c(-c3ccccc3)cccc12` as the compound, how does the pIC50 (Cytochrome P450 3A4) read?
Its pIC50 is 4.26.

And the pIC50 (Cytochrome P450 2A6)?
The pIC50 was 3.30.

And the pIC50 (Cytochrome P450 2C19)?
The pIC50 was 3.84.

What about the pIC50 (Cytochrome P450 2C9) of the same compound?
The pIC50 was 5.09.

What about the pIC50 (Cytochrome P450 1A2) of the same compound?
Its pIC50 is 3.30.

And the concentration (Rattus norvegicus [7])?
Its concentration is 0.5 µM.

And the clearance [2]?
Its clearance is 9.1 mL/min/kg.

And the AUC [3]?
Its AUC is 3.93 µM·h.

And the pIC50 (HUVEC)?
The pIC50 was 5.35.

What about the Cmax [4] of the same compound?
Its Cmax is 9 µM.

And the pIC50 (Cytochrome P450 2C8)?
Its pIC50 is 5.32.

And the Activity (Rattus norvegicus [8])?
The Activity was “Non-toxic”.

And the pIC50 (Cytochrome P450 2D6)?
Its pIC50 is 3.82.

What about the bioavailability [9] of the same compound?
The bioavailability was 24%.

What does the source list for `CC(C)c1cccc2c(C(=O)O)c(O)c(-c3ccc(Cl)cc3)nc12`?
clearance [2]: 6.5 mL/min/kg; AUC [3]: 6.7 µM·h; pIC50 (HUVEC): 5.33; Cmax [4]: 7 µM; pIC50 [5]: 3.55

For `Nc1c(-c2ccc(-c3ccccc3)cc2)nc2ccc(F)cc2c1C(=O)O`, which LD50 [10] is on record?
The LD50 was 20.5 mg/kg.

What about the pIC50 [5] of the same compound?
The pIC50 was 7.92.

With `COc1cccc2c(C(=O)O)c(O)c(-c3ccc(Cl)cc3)nc12` as the compound, how does the pIC50 [5] read?
The pIC50 was 3.51.

With `O=C(O)c1c(O)c(-c2ccc(Cl)cc2)nc2ccc(OC(F)(F)F)cc12` as the compound, how does the pIC50 (HUVEC) read?
Its pIC50 is 4.60.

With `O=C(O)c1c(O)c(-c2ccc(Cl)cc2)nc2c(OC(F)(F)F)cccc12` as the compound, how does the pIC50 (HUVEC) read?
The pIC50 was 4.98.

What about the pIC50 [5] of the same compound?
The pIC50 was 3.89.
